Laboratory results reported in PubChem BioAssay (NCI).
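48-hour exposure; five concentrations; linearly interpolated endpoints. GI50 marks 50% less growth. The concentration for full growth arrest is given as TGI.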

Columns and labels:
Experiment in all cases: inhibition of tumour cell growth, NCI panel, 48 h
OVCAR-4 ovarian = test system: OVCAR-4 ovarian
HOP-92 NSCLC = test system: HOP-92 NSCLC
HCT-116 colon = test system: HCT-116 colon
HL-60(TB) leukemia = test system: HL-60(TB) leukemia
SF-539 CNS = test system: SF-539 CNS
OVCAR-8 ovarian = test system: OVCAR-8 ovarian
UACC-62 melanoma = test system: UACC-62 melanoma
PC-3 prostate = test system: PC-3 prostate
HS 578T breast = test system: HS 578T breast
ACHN renal = test system: ACHN renal
CAKI-1 renal = test system: CAKI-1 renal
K-562 leukemia = test system: K-562 leukemia
RPMI-8226 leukemia = test system: RPMI-8226 leukemia
SK-MEL-5 melanoma = test system: SK-MEL-5 melanoma
OVCAR-5 ovarian = test system: OVCAR-5 ovarian
LOX IMVI melanoma = test system: LOX IMVI melanoma
M14 melanoma = test system: M14 melanoma
786-0 renal = test system: 786-0 renal
SNB-19 CNS = test system: SNB-19 CNS
DU-145 prostate = test system: DU-145 prostate
SN12C renal = test system: SN12C renal
NCI/ADR-RES ovarian = test system: NCI/ADR-RES ovarian
SK-OV-3 ovarian = test system: SK-OV-3 ovarian
IGROV1 ovarian = test system: IGROV1 ovarian
HT29 colon = test system: HT29 colon
OVCAR-3 ovarian = test system: OVCAR-3 ovarian
HCC-2998 colon = test system: HCC-2998 colon
BT-549 breast = test system: BT-549 breast
MDA-MB-435 = test system: MDA-MB-435
TK-10 renal = test system: TK-10 renal
SK-MEL-28 melanoma = test system: SK-MEL-28 melanoma
SNB-75 CNS = test system: SNB-75 CNS
NCI-H226 lung = test system: NCI-H226 lung
U251 CNS = test system: U251 CNS
RXF 393 renal = test system: RXF 393 renal
HCT-15 colon = test system: HCT-15 colon
MOLT-4 leukemia = test system: MOLT-4 leukemia
A498 renal = test system: A498 renal
A549 NSCLC = test system: A549 NSCLC
MCF7 breast = test system: MCF7 breast
EKVX NSCLC = test system: EKVX NSCLC
KM12 colon = test system: KM12 colon
SK-MEL-2 melanoma = test system: SK-MEL-2 melanoma
SW-620 colon = test system: SW-620 colon
SF-295 CNS = test system: SF-295 CNS
COLO 205 colon = test system: COLO 205 colon
HOP-62 NSCLC = test system: HOP-62 NSCLC
UACC-257 melanoma = test system: UACC-257 melanoma
SR leukemia = test system: SR leukemia
NCI-H460 lung = test system: NCI-H460 lung
MDA-MB-231 breast = test system: MDA-MB-231 breast
MALME-3M melanoma = test system: MALME-3M melanoma
CCRF-CEM leukemia = test system: CCRF-CEM leukemia
UO-31 renal = test system: UO-31 renal
NCI-H23 lung = test system: NCI-H23 lung
NCI-H522 lung = test system: NCI-H522 lung
SF-268 CNS = test system: SF-268 CNS

Cn1cc(-c2ccc(-c3cn(C)c4ncccc34)[nH]2)c2cccnc21
GI50 (OVCAR-4 ovarian): 0.638 µM | TGI (OVCAR-4 ovarian): 1.61 µM | GI50 (HOP-92 NSCLC): 0.448 µM | TGI (HOP-92 NSCLC): 2.13 µM | GI50 (HCT-116 colon): 2.81 µM | TGI (HCT-116 colon): 12.4 µM | GI50 (HL-60(TB) leukemia): 1.87 µM | TGI (HL-60(TB) leukemia): 7.48 µM | GI50 (SF-539 CNS): 1.59 µM | TGI (SF-539 CNS): 3.32 µM | GI50 (OVCAR-8 ovarian): 2.44 µM | TGI (OVCAR-8 ovarian): 6.45 µM | GI50 (UACC-62 melanoma): 1.63 µM | TGI (UACC-62 melanoma): 3.76 µM | GI50 (PC-3 prostate): 1.43 µM | TGI (PC-3 prostate): 3.38 µM | GI50 (HS 578T breast): 1.95 µM | TGI (HS 578T breast): 6.42 µM | GI50 (ACHN renal): 1.62 µM | TGI (ACHN renal): 3.08 µM | GI50 (CAKI-1 renal): 1.44 µM | TGI (CAKI-1 renal): 4.03 µM | GI50 (K-562 leukemia): 1.76 µM | TGI (K-562 leukemia): 8.11 µM | GI50 (RPMI-8226 leukemia): 1.94 µM | TGI (RPMI-8226 leukemia): 6.88 µM | GI50 (SK-MEL-5 melanoma): 1.6 µM | TGI (SK-MEL-5 melanoma): 3.47 µM | GI50 (OVCAR-5 ovarian): 1.65 µM | TGI (OVCAR-5 ovarian): 3.59 µM | GI50 (LOX IMVI melanoma): 2 µM | TGI (LOX IMVI melanoma): 3.93 µM | GI50 (M14 melanoma): 1.94 µM | TGI (M14 melanoma): 3.97 µM | GI50 (786-0 renal): 4.64 µM | TGI (786-0 renal): 38.6 µM | GI50 (SNB-19 CNS): 2.65 µM | TGI (SNB-19 CNS): 8.03 µM | GI50 (DU-145 prostate): > 100 µM | TGI (DU-145 prostate): > 100 µM | GI50 (SN12C renal): 7.26 µM | TGI (SN12C renal): > 100 µM | GI50 (NCI/ADR-RES ovarian): 2.93 µM | TGI (NCI/ADR-RES ovarian): 9.59 µM | GI50 (SK-OV-3 ovarian): 25.1 µM | TGI (SK-OV-3 ovarian): > 100 µM | GI50 (IGROV1 ovarian): 4.5 µM | TGI (IGROV1 ovarian): 53.4 µM | GI50 (HT29 colon): 10 µM | TGI (HT29 colon): > 100 µM | GI50 (OVCAR-3 ovarian): 1.63 µM | TGI (OVCAR-3 ovarian): 3.3 µM | GI50 (HCC-2998 colon): 2.51 µM | TGI (HCC-2998 colon): 5.89 µM | GI50 (BT-549 breast): 1.07 µM | TGI (BT-549 breast): 2.79 µM | GI50 (MDA-MB-435): 24 µM | TGI (MDA-MB-435): > 100 µM | GI50 (TK-10 renal): 1.48 µM | TGI (TK-10 renal): 2.88 µM | GI50 (SK-MEL-28 melanoma): 3.33 µM | TGI (SK-MEL-28 melanoma): 10.9 µM | GI50 (SNB-75 CNS): 1.82 µM | TGI (SNB-75 CNS): 4.34 µM | GI50 (NCI-H226 lung): > 67.1 µM | TGI (NCI-H226 lung): > 100 µM | GI50 (U251 CNS): 1.66 µM | TGI (U251 CNS): 3.17 µM | GI50 (RXF 393 renal): 1.52 µM | TGI (RXF 393 renal): 3.65 µM | GI50 (HCT-15 colon): 1.69 µM | TGI (HCT-15 colon): 4.63 µM | GI50 (MOLT-4 leukemia): 10.2 µM | TGI (MOLT-4 leukemia): > 100 µM | GI50 (A498 renal): > 26.3 µM | TGI (A498 renal): > 100 µM | GI50 (A549 NSCLC): 7.84 µM | TGI (A549 NSCLC): > 100 µM | GI50 (MCF7 breast): 5.54 µM | TGI (MCF7 breast): > 100 µM | GI50 (EKVX NSCLC): 1.62 µM | TGI (EKVX NSCLC): 3.34 µM | GI50 (KM12 colon): 2.02 µM | TGI (KM12 colon): 4.23 µM | GI50 (SK-MEL-2 melanoma): 1.91 µM | TGI (SK-MEL-2 melanoma): 4.04 µM | GI50 (SW-620 colon): 2.32 µM | TGI (SW-620 colon): 5.34 µM | GI50 (SF-295 CNS): 4.28 µM | TGI (SF-295 CNS): 12.1 µM | GI50 (COLO 205 colon): 1.82 µM | TGI (COLO 205 colon): 3.84 µM | GI50 (HOP-62 NSCLC): 3.02 µM | TGI (HOP-62 NSCLC): 24.8 µM | GI50 (UACC-257 melanoma): 2.93 µM | TGI (UACC-257 melanoma): 19.6 µM | GI50 (SR leukemia): 1.62 µM | TGI (SR leukemia): > 22.1 µM | GI50 (NCI-H460 lung): 10 µM | TGI (NCI-H460 lung): > 100 µM | GI50 (MDA-MB-231 breast): 1.79 µM | TGI (MDA-MB-231 breast): 4.08 µM | GI50 (MALME-3M melanoma): 2.7 µM | TGI (MALME-3M melanoma): 7.12 µM | GI50 (CCRF-CEM leukemia): 2.27 µM | TGI (CCRF-CEM leukemia): 7.56 µM | GI50 (UO-31 renal): 1.57 µM | TGI (UO-31 renal): 3.01 µM | GI50 (NCI-H23 lung): 3.18 µM | TGI (NCI-H23 lung): 12.7 µM | GI50 (NCI-H522 lung): 0.19 µM | TGI (NCI-H522 lung): 0.451 µM | GI50 (SF-268 CNS): 2.23 µM | TGI (SF-268 CNS): 5.45 µM
